Earlier results as cited in patent publication US9738620B2, “Trientine prodrugs, pharmaceutical compositions thereof, and methods of use” (priority 2015, dated 2017).

Conditions: Lu., Molecular Cancer Therapeutics. 2010, 9 (9), 2458-67

NCCNCCNCCN [Trientine]
oral bioavailability: 8-30%
